Columns and labels:
Type in all cases: biochemical
PAK3 = PAK3 (Homo sapiens, UniProt O75914); assay: Z'Lyte fluorescence-based (FRET) PAK kinase assay, PAK3; conditions: 100 μM ATP
Experimental: (§1) A fluorescence-based assay format is used to determine IC50 values of test compounds in vitro. Purified PAK kinase is incubated with ATP, and a test compound at various concentrations and a substrate peptide containing two fluorophores. In a second step, the reaction mix is incubated with a site-specific protease that cleaves non-phosphorylated bat not phosphorylated substrate peptide, disrupting the FRET signal generated by the two fluorophores in the cleaved peptide (Z′Lyte™ Kinase assay platform; Life Technologies).
(§2) Reagents: 50 mM HEPES, pH 7.5; 0.01% BRIJ-35; 10 nM MgCl1; 1 mM EGTA, 2 uM substrate peptide Ser/Thr20 (proprietary Life Technologies Sequence), PAK enzyme [2.42-30.8 ng for PAK1, 0.29-6 ng for PAK2, 1.5-20 ng for PAK3 and 0.1-0.86 ng for PAK4; actual enzyme amounts depend on lot activity of the enzyme preparation]
(§3) Test compounds are dissolved in DMSO at various concentrations; the final DMSO concentration in the assay reaction is 1%.
(§4) ATP concentration at Kin apparent is used in the assay [50 ┌M ATP for PAK1 assay, 75 ┌M ATP for PAK2 assay, 100 μM ATP for PAK3 assay, 5 μM ATP for PAK4 assay] in a total assay volume of 10 μl. Assay reactions are incubated at room temperature for 1 hr. Following the kinase reaction, 5 μl of 1:256 dilution of development solution A (Life Technologies) is added and the reaction mix is incubated for an additional 1 hr at room temperature.
(§5) Plates are analyzed in a standard fluorescence plate reader (Tecan or equivalent) using an excitation wavelength of 400 nn and emission wavelengths of 445 nm and 520 nm.
(§6) Inhibition of kinase reaction is determined by emission ratio=emission@445 nm/emission@520 nm
as §1, with “non-phosphorylated but” for “non-phosphorylated bat”, “peptide (Z'Lyte™” for “peptide (Z′Lyte™”, “assay platform” for “assay platform;”
as §2, with “mM MgCl2;” for “nM MgCl1;”
as §4, with “at Km” for “at Kin”, “[50 μMATP” for “[50 ┌M ATP”, “75 µM” for “75 ┌M”, “[…]” for “10 μl.”, “kinase reaction.” for “kinase reaction,”, “[…]” for “5 μl”
(§7) Plates are analyzed in a standard fluorescence plate reader (Teem or equivalent) using an excitation wavelength of 400 nm and emission wavelengths of 445 nm and 520 nm.

PAK2 = PAK2 (Homo sapiens, UniProt Q13177); assay: Z'Lyte fluorescence-based (FRET) PAK kinase assay, PAK2
Chain of PAK2 (Q13177 whole entry): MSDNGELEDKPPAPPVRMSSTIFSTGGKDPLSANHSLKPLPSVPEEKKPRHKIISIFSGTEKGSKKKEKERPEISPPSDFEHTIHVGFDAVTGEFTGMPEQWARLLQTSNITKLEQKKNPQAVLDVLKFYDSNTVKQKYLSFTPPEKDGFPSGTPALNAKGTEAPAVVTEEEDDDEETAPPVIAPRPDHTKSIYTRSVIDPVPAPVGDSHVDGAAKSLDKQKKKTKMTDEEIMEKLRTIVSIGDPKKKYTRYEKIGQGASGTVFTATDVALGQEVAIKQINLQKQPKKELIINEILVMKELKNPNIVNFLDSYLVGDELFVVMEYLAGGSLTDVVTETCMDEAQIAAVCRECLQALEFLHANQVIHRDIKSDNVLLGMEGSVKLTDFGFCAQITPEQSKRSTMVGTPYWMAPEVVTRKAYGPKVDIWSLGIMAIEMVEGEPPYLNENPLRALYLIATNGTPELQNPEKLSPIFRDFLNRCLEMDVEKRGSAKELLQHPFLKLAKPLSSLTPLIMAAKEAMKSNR
Experimental: as §1, §2, §3, §4, §5, §6
as §1, with “non-phosphorylated but” for “non-phosphorylated bat”, “peptide (Z'Lyte™” for “peptide (Z′Lyte™”, “assay platform” for “assay platform;”
as §2, with “mM MgCl2;” for “nM MgCl1;”
as §4, with “at Km” for “at Kin”, “[50 μMATP” for “[50 ┌M ATP”, “75 µM” for “75 ┌M”, “[…]” for “10 μl.”, “kinase reaction.” for “kinase reaction,”, “[…]” for “5 μl”
as §7

PAK4 = PAK4 (Homo sapiens, UniProt O96013); assay: Z'Lyte fluorescence-based (FRET) PAK kinase assay, PAK4; conditions: 5 μM ATP
Chain of PAK4 (O96013 whole entry): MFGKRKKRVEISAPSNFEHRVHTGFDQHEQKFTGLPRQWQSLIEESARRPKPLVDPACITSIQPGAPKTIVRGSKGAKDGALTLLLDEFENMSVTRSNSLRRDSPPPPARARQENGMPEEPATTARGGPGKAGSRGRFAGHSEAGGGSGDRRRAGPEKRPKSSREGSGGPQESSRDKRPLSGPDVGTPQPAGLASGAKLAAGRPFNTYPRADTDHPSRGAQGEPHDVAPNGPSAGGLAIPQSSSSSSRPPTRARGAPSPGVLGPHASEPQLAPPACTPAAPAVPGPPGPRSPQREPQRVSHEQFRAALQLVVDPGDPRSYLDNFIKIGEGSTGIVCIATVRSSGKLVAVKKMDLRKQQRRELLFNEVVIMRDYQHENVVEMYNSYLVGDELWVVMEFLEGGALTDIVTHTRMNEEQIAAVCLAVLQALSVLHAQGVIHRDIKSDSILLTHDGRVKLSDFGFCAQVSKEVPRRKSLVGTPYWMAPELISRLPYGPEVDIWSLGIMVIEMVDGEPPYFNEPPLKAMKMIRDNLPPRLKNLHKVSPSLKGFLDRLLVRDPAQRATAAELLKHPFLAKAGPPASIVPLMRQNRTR
Experimental: as §1, §2, §3, §4, §5, §6
as §1, with “non-phosphorylated but” for “non-phosphorylated bat”, “peptide (Z'Lyte™” for “peptide (Z′Lyte™”, “assay platform” for “assay platform;”
as §2, with “mM MgCl2;” for “nM MgCl1;”
as §4, with “at Km” for “at Kin”, “[50 μMATP” for “[50 ┌M ATP”, “75 µM” for “75 ┌M”, “[…]” for “10 μl.”, “kinase reaction.” for “kinase reaction,”, “[…]” for “5 μl”
as §7

PAK1 = PAK1 (Homo sapiens, UniProt Q13153); assay: Z'Lyte fluorescence-based (FRET) PAK kinase assay, PAK1; conditions: 50 μM ATP
Chain of PAK1 (Q13153 whole entry): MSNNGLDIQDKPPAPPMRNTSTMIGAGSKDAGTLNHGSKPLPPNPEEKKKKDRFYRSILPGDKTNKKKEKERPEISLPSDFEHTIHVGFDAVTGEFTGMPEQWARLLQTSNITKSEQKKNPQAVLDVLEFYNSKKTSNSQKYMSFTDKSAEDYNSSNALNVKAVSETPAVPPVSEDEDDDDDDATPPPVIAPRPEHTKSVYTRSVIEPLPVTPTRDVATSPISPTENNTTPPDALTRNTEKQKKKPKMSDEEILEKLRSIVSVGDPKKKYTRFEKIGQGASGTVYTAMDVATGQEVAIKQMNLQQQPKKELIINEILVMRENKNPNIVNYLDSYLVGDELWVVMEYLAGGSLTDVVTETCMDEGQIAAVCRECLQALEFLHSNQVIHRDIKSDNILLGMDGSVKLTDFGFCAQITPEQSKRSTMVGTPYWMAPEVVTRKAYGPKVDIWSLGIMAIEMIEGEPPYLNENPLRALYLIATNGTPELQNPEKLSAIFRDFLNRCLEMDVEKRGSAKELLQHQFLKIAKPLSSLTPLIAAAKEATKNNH
Experimental: as §1, §2, §3, §4, §5, §6
as §1, with “non-phosphorylated but” for “non-phosphorylated bat”, “peptide (Z'Lyte™” for “peptide (Z′Lyte™”, “assay platform” for “assay platform;”
as §2, with “mM MgCl2;” for “nM MgCl1;”
as §4, with “at Km” for “at Kin”, “[50 μMATP” for “[50 ┌M ATP”, “75 µM” for “75 ┌M”, “[…]” for “10 μl.”, “kinase reaction.” for “kinase reaction,”, “[…]” for “5 μl”
as §7

[1] = Table 1 of Example 29 (own compound numbering)
[2] = Table 1 of Example 29 (own compound numbering), 75 µM ATP
[3] = Table 1 of Example 100, 75 μM ATP

Chain of PAK3 (O75914 whole entry): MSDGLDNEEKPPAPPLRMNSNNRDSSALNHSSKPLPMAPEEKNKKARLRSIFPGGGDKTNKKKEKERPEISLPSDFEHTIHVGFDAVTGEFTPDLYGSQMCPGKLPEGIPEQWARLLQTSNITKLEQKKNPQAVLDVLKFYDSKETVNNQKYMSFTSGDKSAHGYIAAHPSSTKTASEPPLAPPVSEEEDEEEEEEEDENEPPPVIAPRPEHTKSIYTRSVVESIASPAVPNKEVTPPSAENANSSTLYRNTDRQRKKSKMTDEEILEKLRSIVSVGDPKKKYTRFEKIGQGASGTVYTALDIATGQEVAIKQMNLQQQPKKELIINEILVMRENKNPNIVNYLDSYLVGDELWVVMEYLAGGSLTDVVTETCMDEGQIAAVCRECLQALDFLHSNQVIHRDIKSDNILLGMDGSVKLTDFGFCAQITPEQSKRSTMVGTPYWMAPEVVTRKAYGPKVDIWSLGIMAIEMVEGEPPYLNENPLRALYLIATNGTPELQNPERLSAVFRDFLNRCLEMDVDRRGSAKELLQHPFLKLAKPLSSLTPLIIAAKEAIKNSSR

Row | Compound | IC50 (PAK3; [1]) [nM] | IC50 (PAK2; [2]) [nM] | IC50 (PAK4; [1]) [nM] | IC50 (PAK1; [1]) [nM] | IC50 (PAK3; Table 1 of Example 100) [nM] | IC50 (PAK2; [3]) [nM] | IC50 (PAK4; Table 1 of Example 100) [nM] | IC50 (PAK1; Table 1 of Example 100) [nM]
1 | CN1CCN(c2ccc(Nc3ncc4ccc(=O)n(CC(=O)c5ccccc5)c4n3)cc2)CC1 [Compound 104] | 1000 to 10000 | 1000 to 10000 | 1000 to 10000 | 1000 to 10000 |  |  |  | 
2 | O=c1ccc2cnc(Nc3ccc(NC4CCNCC4)cc3)nc2n1Cc1ccccc1C(F)(F)F [Compound 8] |  |  |  |  | < 1000 | < 1000 | < 1000 | < 1000
3 | CN1CCN(c2ccc(Nc3ncc4ccc(=O)n(Cc5c(O)cccc5Cl)c4n3)cc2)CC1 [Compound 109] | 1000 to 10000 | < 1000 | < 1000 | < 1000 |  |  |  | 
4 | Cc1cccnc1Cn1c(=O)ccc2cnc(Nc3ccc(N4CCN(C)CC4)cc3)nc21 [Compound 106] | > 10000 | 1000 to 10000 | 1000 to 10000 | 1000 to 10000 |  |  |  | 
5 | CN1CCN(c2ccc(Nc3ncc4ccc(=O)n(Cc5ccccc5-n5cccn5)c4n3)cc2)CC1 [Compound 107] | 1000 to 10000 | 1000 to 10000 | 1000 to 10000 | < 1000 |  |  |  | 
6 | CN1CCN(c2ccc(Nc3ncc4ccc(=O)n(Cc5ccccc5SC(F)(F)F)c4n3)cc2)CC1 [Compound 43] |  |  |  |  | < 1000 | < 1000 | < 1000 | < 1000
7 | CN1CCN(c2ccc(Nc3ncc4ccc(=O)n(C5CCCc6ccccc65)c4n3)cc2)CC1 (stereo not drawn) [Compound 5] |  |  |  |  | 1000 to 10000 | 1000 to 10000 | 1000 to 10000 | 1000 to 10000
8 | CN1CCN(c2ccc(Nc3ncc4ccc(=O)n(C5CCc6ccccc65)c4n3)cc2)CC1 (stereo not drawn) [Compound 6] |  |  |  |  | 1000 to 10000 | 1000 to 10000 | 1000 to 10000 | < 1000
9 | O=c1ccc2cnc(Nc3ccc(N4CCNCC4)c(F)c3)nc2n1Cc1ccccc1-c1ncno1 [Compound 132] | 1000 to 10000 | 1000 to 10000 | 1000 to 10000 | < 1000 |  |  |  | 
10 | COc1ccc(F)cc1Cn1c(=O)ccc2cnc(Nc3ccc(N4CCN(C)CC4)cc3)nc21 [Compound 54] |  |  |  |  | 1000 to 10000 | 1000 to 10000 | 1000 to 10000 | < 1000
11 | Cc1cccnc1Cn1c(=O)ccc2cnc(Nc3ccc(N4CCN(C)CC4)cc3)nc21 [Compound 52] |  |  |  |  | > 10000 | 1000 to 10000 | 1000 to 10000 | 1000 to 10000
12 | Cc1ccccc1Cn1c(=O)ccc2cnc(Nc3ccc(N4CCN(C)CC4)cc3)nc21 [Compound 117] | < 1000 | < 1000 | < 1000 | < 1000 |  |  |  | 
13 | CN1CCN(c2ccc(Nc3ncc4ccc(=O)n(C5CCCC5)c4n3)cc2)CC1 [Compound 1] |  |  |  |  | 1000 to 10000 | 1000 to 10000 | 1000 to 10000 | < 1000
14 | CN(C)CC(c1ccccc1)n1c(=O)ccc2cnc(Nc3ccc(N4CCOCC4)cc3)nc21 (stereo not drawn) [Compound 16] |  |  |  |  | > 10000 | > 10000 | > 10000 | > 10000
15 | O=c1ccc2cnc(Nc3ccc(OC4CCCNC4)cc3)nc2n1Cc1ccccc1C(F)(F)F (stereo not drawn) [Compound 14] |  |  |  |  | < 1000 | < 1000 | < 1000 | < 1000
16 | CN(C)CC(c1ccccc1)n1c(=O)ccc2cnc(Nc3ccc(N4CCN(C)CC4)cc3)nc21 (stereo not drawn) [Compound 19] |  |  |  |  | > 10000 | > 10000 | > 10000 | > 10000
17 | CN1CCN(c2ccc(Nc3ncc4ccc(=O)n(Cc5ccccc5OC(F)F)c4n3)cc2)CC1 [Compound 44] |  |  |  |  | < 1000 | < 1000 | < 1000 | < 1000
18 | CN1CCN(c2ccc(Nc3ncc4ccc(=O)n([C@@H]5CCCc6ccccc65)c4n3)cc2)CC1 [Compound 10] |  |  |  |  | 1000 to 10000 | 1000 to 10000 | 1000 to 10000 | 1000 to 10000

Row | Compound | IC50 (PAK3; [1]) [nM] | IC50 (PAK2; [2]) [nM] | IC50 (PAK4; [1]) [nM] | IC50 (PAK1; [1]) [nM] | IC50 (PAK3; Table 1 of Example 100) [nM] | IC50 (PAK2; [3]) [nM] | IC50 (PAK4; Table 1 of Example 100) [nM] | IC50 (PAK1; Table 1 of Example 100) [nM]
19 | CN1CCN(c2ccc(Nc3ncc4ccc(=O)n(Cc5c(F)cccc5[S+](C)[O-])c4n3)cc2)CC1 (stereo not drawn) [Compound 139] | < 1000 | 1000 to 10000 | 1000 to 10000 | < 1000 |  |  |  | 
20 | CN(c1ccc(Nc2ncc3ccc(=O)n(Cc4ccccc4C(F)(F)F)c3n2)cc1)C1CCCNC1 (stereo not drawn) [Compound 13] |  |  |  |  | < 1000 | < 1000 | < 1000 | < 1000
21 | CN1CCN(c2ccc(Nc3ncc4ccc(=O)n(Cc5ccccc5-c5ncno5)c4n3)cc2)CC1 [Compound 127] | 1000 to 10000 | 1000 to 10000 | 1000 to 10000 | < 1000 |  |  |  | 
22 | CN1CCCC(Nc2ccc(Nc3ncc4ccc(=O)n(Cc5ccccc5C(F)(F)F)c4n3)cc2)C1 (stereo not drawn) [compound 61] |  |  |  |  | < 1000 | < 1000 | < 1000 | < 1000
23 | COc1ccc(F)cc1Cn1c(=O)ccc2cnc(Nc3ccc(N4CCN(C)CC4)cc3)nc21 [Compound 108] | 1000 to 10000 | 1000 to 10000 | 1000 to 10000 | < 1000 |  |  |  | 
24 | Cc1cccc(O)c1Cn1c(=O)ccc2cnc(Nc3ccc(N4CCN(C)CC4)cc3)nc21 [Compound 119] | 1000 to 10000 | 1000 to 10000 | < 1000 | < 1000 |  |  |  | 
25 | O=c1ccc2cnc(Nc3ccc(N4CCNCC4)cc3)nc2n1C1CCCc2ccccc21 (stereo not drawn) [compound 61] | 1000 to 10000 | 1000 to 10000 | 1000 to 10000 | 1000 to 10000 |  |  |  | 
26 | Cc1cc(F)ccc1Cn1c(=O)ccc2cnc(Nc3ccc(N4CCN(C)CC4)cc3)nc21 [Compound 45] |  |  |  |  | 1000 to 10000 | 1000 to 10000 | 1000 to 10000 | 1000 to 10000
27 | CN1CCN(c2ccc(Nc3ncc4ccc(=O)n(C5CCOc6ccccc65)c4n3)cc2)CC1 (stereo not drawn) [Compound 15] |  |  |  |  | 1000 to 10000 | 1000 to 10000 | 1000 to 10000 | 1000 to 10000
28 | CN1CCN(c2ccc(Nc3ncc4ccc(=O)n(Cc5ccccc5-n5cccn5)c4n3)cc2)CC1 [Compound 53] |  |  |  |  | 1000 to 10000 | 1000 to 10000 | 1000 to 10000 | < 1000
29 | O=c1c(-c2ccccc2)cc2cnc(Nc3ccc(NC4CCCNC4)cc3)nc2n1Cc1ccccc1C(F)(F)F (stereo not drawn) [compound 95] |  |  |  |  | < 1000 | < 1000 | 1000 to 10000 | < 1000
30 | O=c1ccc2cnc(Nc3ccc(NC4CCCNC4)cc3)nc2n1Cc1ccccc1C(F)(F)F (stereo not drawn) [Compound 7] |  |  |  |  | < 1000 | < 1000 | < 1000 | < 1000
31 | CN1CCCC(Nc2ccc(Nc3ncc4ccc(=O)n(Cc5ccccc5C(F)(F)F)c4n3)cc2)C1 (stereo not drawn) [Compound 115] | < 1000 | < 1000 | < 1000 | < 1000 |  |  |  | 
32 | Cc1ccc(C)c(Cn2c(=O)ccc3cnc(Nc4ccc(N5CCN(C)CC5)cc4)nc32)c1 [Compound 46] |  |  |  |  | 1000 to 10000 | 1000 to 10000 | 1000 to 10000 | 1000 to 10000
33 | CN1CCN(c2ccc(Nc3ncc4ccc(=O)n(C5Cc6ccccc6C5)c4n3)cc2)CC1 [Compound 17] |  |  |  |  | 1000 to 10000 | 1000 to 10000 | < 1000 | < 1000
34 | O=c1ccc2cnc(Nc3ccc(OC4CCNCC4)cc3)nc2n1Cc1ccccc1C(F)(F)F [Compound 12] |  |  |  |  | < 1000 | < 1000 | < 1000 | < 1000
35 | CC(c1ccccc1)n1c(=O)ccc2cnc(Nc3ccc(N4CCN(C)CC4)cc3)nc21 (stereo not drawn) [Compound 48] |  |  |  |  | > 10000 | 1000 to 10000 | 1000 to 10000 | 1000 to 10000
36 | O=c1ccc2cnc(Nc3ccc(N4CCNCC4)cc3)nc2n1Cc1ccccc1C(F)(F)F [Compound 9] |  |  |  |  | < 1000 | < 1000 | < 1000 | < 1000
